Laboratory results reported in US20090263429A1, “Method of Preparing a Hydrogel” (The University of Manchester, priority 2005, published 2009).

Assay: 96 well screen of Fmoc/Cbz-amino acid and dipeptide with thermolysin (gelation)
Type: physicochemical
Conditions: Fmoc-G and GG with thermolysin, 20 mM Fmoc-aa, 48 hours at room temperature
Experimental: Fmoc-amino acids or Cbz-amino acids with dipeptides were weighed in to a clean universal to the different concentrations and the various ratios required. They were then suspended in deionised water, and solubilized by the addition of 0.5M NaOH to adjust the pH to 13. The particle size was reduced through the reduction of larger clumps by gentle manipulation with a spatula, and the subsequent immersion in a sonication bath. […] The pH was reduced by the addition dropwise from a 200 μl pipette of 0.1 M HCl with gentle vortexing until the value reached 7. […] Upon acquisition of a neutral pH, de-ionised water was added up to the required volume.
The enzyme, thermolysin, was provided in the form of a lyphophilized powder. This was weighed to a sterile universal, and then reconstituted in distilled water to a concentration of 1 mg/ml. In order to ensure the enzyme was fully solubilised, the solution was vortexed for thirty seconds, and stored at room temperature within a sealed container and used within thirty minutes. […]
A 96 well format was developed to screen large numbers of combinations of reactant ratios and concentrations. […] Relative quantities of these were added. […] Sufficient quantities of distilled water were added to make up to a final volume of […]. […] Results of the reactions were measured by HPLC, and the degree of conversion of Fmoc/Cbz-amino acid to Fmoc/Cbz-tripeptide was calculated.

Substance: Fmoc-triGlycine [Fmoc-GGG]
- gel formation: doesn't form a gel
